Data set [1] relates to Tubulin α1 (Tα1) promoter. Nature of the data set: cells. In outline: (§1)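 Mouse CGR8 ESCs carrying Tα1-firefly and EF1α-Renilla luciferase reporters, treated either undifferentiated (48 h exposure after 24 h plating) or as MS5-induced neurons (exposure day 6 to day 8). Dual-luciferase luminescence expressed as % promoter activity versus DMSO control wells; 5 µM methylmercury as positive control.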

The test system of a further data set is EF1α promoter. In outline: as §1
Data set [2] deals with Tubulin α1 (Tα1) promoter. In outline: as §1
The conditions of data set [3]: cited from earlier work; for Concentration in humans (increase in blood mercury levels after vaccination): ref Pichichero et al. ([2008]).
For data set [4] the following is noted: Table S1, three classes; ref per compound in the footnotes of Table S1; cited from earlier work.
Setting [5] is: ESC-derived neurons, 48 h exposure.
The mark [6] stands for this setting: undifferentiated ESCs, 48 h exposure.
The mark [7] stands for this setting: undifferentiated ESCs, 48 h exposure, lowest tested concentration with statistically significant decrease.

Like-named read-outs stand apart in the source and are kept apart here. Marks after values point to notes of the source that are not given here.

Regarding `Cc1[nH]c2ccccc2c1CCNCc1ccc(/C=C/C(=O)NO)cc1` [Panobinostat], the “effect on neural promoter activity in neurons” value in data set [1] is reported as “inhibited at subnanomolar concentrations”. Besides, in data set [1] (setting [5]), the “LOAEL Neurons Tα1” value came out at 0.0005 µM. In addition, the “LOAEL Neurons EF1α” value with EF1α promoter (setting [5]) is 50 µM. In the data set on EF1α promoter (setting [6]), the “LOAEL ESC EF1α” value is given as 0.05 µM. Further, the “LOAEL ESC Tα1” value in data set [2] (setting [7]) worked out at 0.05 µM. Moreover, the Concentration in humans in data set [3] (ref Bauer et al. ([2014])) was 0.036–0.045^h µM. Besides, the “class based on clinical evidence for neurotoxicity” value (“class based on clinical evidence” for short) in data set [4] is “Possibly (developmental)”.

For `CC(C)NCC(O)COc1cccc2ccccc12` (centres unmarked) [Propranolol], in data set [1] (setting [5]), the “LOAEL Neurons Tα1” value came out at 50 µM. The “LOAEL Neurons EF1α” value in the data set with EF1α promoter (setting [5]) was over 50 µM. Also, the “LOAEL ESC EF1α” value in the data set with EF1α promoter (setting [6]) was 50 µM. Further, in data set [2] (setting [7]), the “LOAEL ESC Tα1” value is given as 50 µM. Further, the Concentration in humans in data set [3] (ref International Programme on Chemical Safety) is recorded as 0.12–0.19^d µM. In addition, the “class based on clinical evidence” value in data set [4] is recorded as “Non-neurotoxic”.

One may read the inhibition as the share of the control response that was lost under treatment. `COCC(=O)O` [Methoxyacetic acid]: the “LOAEL Neurons Tα1” value in data set [1] (setting [5]) worked out at 50 µM. In addition, the inhibition at 50 µM in data set [1] (Mus musculus, Neuron, read-out: inhibition of neuronal promoter activity) was about 40%. Besides, in the data set with EF1α promoter (setting [5]), the “LOAEL Neurons EF1α” value is given as over 50 µM. In addition, the “LOAEL ESC EF1α” value in the data set on EF1α promoter (setting [6]) is listed as over 50 µM. Also, in data set [2], the “effect on neural promoter activity in ESCs” value is recorded as “increase”. Besides, the “LOAEL ESC Tα1” value in data set [2] (setting [7]) was over 50 µM. For the same molecule, in data set [3] (ref Zimmer et al. ([2014])), the “Concentration in humans (human exposure concentration)” value is reported as 60^k (human exposure concentration) µM. Further, the “class based on clinical evidence” value in data set [4] is “Possibly (developmental)”.

Regarding `C[CH2][Hg][S]c1ccccc1C(=O)[O-].[Na+]` [Thimerosal], the “LOAEL Neurons Tα1” value in data set [1] came to 0.5 µM. Further, in the data set with EF1α promoter, the “LOAEL ESC EF1α” value worked out at 0.5 µM and the “LOAEL Neurons EF1α” value was 0.5 µM. The “LOAEL ESC Tα1” value in data set [2] came to 0.5 µM. In data set [3] (conversion of <5 ng/ml, ref Pichichero et al. [2008]), the “increase in blood mercury levels after vaccination” value is on record as about 25 nM. Also, the “Concentration in humans (increase in blood mercury levels after vaccination)” value in data set [3] is given as “Max 5 ng/ml^j”. Besides, in data set [3] (listed as thimerosal), the “Concentration in humans (increase in blood mercury levels after vaccination)” value was under 5 ng/mL. Also, the “class based on clinical evidence” value in data set [4] is reported as “Possibly (developmental)”.

In the case of `Brc1ccc(Oc2cc(Br)c(Br)cc2Br)c(Br)c1` [PBDE-99], the “LOAEL Neurons Tα1” value in data set [1] (setting [5]) is recorded as over 50 µM. For the same molecule, the “LOAEL Neurons EF1α” value in the data set with EF1α promoter (setting [5]) is on record as 5 µM. Further, in the data set with EF1α promoter (setting [6]), the “LOAEL ESC EF1α” value is over 50 µM. Further, the “LOAEL ESC Tα1” value in data set [2] (setting [7]) was determined as 50 µM. In addition, in data set [3] (ref Zimmer et al. ([2014])), the “Concentration in humans (human exposure concentration)” value is 97*10^−6k (human exposure concentration) µM and the Human exposure concentrations was 5 to 100 pM. Further, the “class based on clinical evidence” value in data set [4] is “Well-established (developmental)”.

In the case of `COc1cc2ncnc(Nc3ccc(F)c(Cl)c3)c2cc1OCCCN1CCOCC1` [Gefitinib], the “LOAEL Neurons Tα1” value in data set [1] (setting [5]) stood at 50 µM. For the same molecule, the “LOAEL Neurons EF1α” value in the data set with EF1α promoter (setting [5]) was 50 µM. In addition, in the data set on EF1α promoter (setting [6]), the “LOAEL ESC EF1α” value stood at 50 µM. For the same molecule, in data set [2] (setting [7]), the “LOAEL ESC Tα1” value came out at 50 µM. The Concentration in humans in data set [3] (ref Zimmer et al. ([2014])) is 1.2^k µM. For the same molecule, in data set [4], the “class based on clinical evidence” value is “Possibly (developmental)”.

As for “Erythropoietin: EpoR agonist controlling erythropoiesis and neurogenesis; Peptide/Protein”, the “LOAEL Neurons Tα1” value in data set [1] (setting [5]) was over 0.238 µM. For the same molecule, in the data set on EF1α promoter, the “effect on general promoter activity in neurons” value is given as “selectively increased”. In addition, the “LOAEL Neurons EF1α” value in the data set on EF1α promoter (setting [5]) was over 0.238 µM. For the same molecule, in the data set on EF1α promoter (setting [6]), the “LOAEL ESC EF1α” value is over 0.238 µM. In data set [2] (setting [7]), the “LOAEL ESC Tα1” value was over 0.238 µM. Further, in data set [3] (ref Zimmer et al. ([2014])), the Concentration in humans is on record as 0.0003^k µM. In data set [4], the “class based on clinical evidence” value is “Non-neurotoxic”.

With `O=c1[nH]c(=O)c2[nH]c(=O)[nH]c2[nH]1` [Uric acid], the “LOAEL Neurons Tα1” value in data set [1] (setting [5]) is on record as over 50 µM. In addition, the “LOAEL Neurons EF1α” value with EF1α promoter (mouse, 48 h) is given as over 50 µM. The “LOAEL ESC EF1α” value with EF1α promoter (setting [6]) was over 50 µM. The “LOAEL ESC Tα1” value in data set [2] (setting [7]) is over 50 µM. The “class based on clinical evidence” value in data set [4] was “Non-neurotoxic”.

Turning to `[CH3][Hg][Cl]` [Methylmercury], the “LOAEL Neurons Tα1” value in data set [1] (setting [5]) is given as 0.05 µM. Besides, the “LOAEL Neurons EF1α” value in the data set with EF1α promoter (setting [5]) is recorded as 5 µM. In the data set with EF1α promoter (setting [6]), the “LOAEL ESC EF1α” value came to 0.5 µM. Further, in data set [2] (setting [7]), the “LOAEL ESC Tα1” value was found to be 0.5 µM. Moreover, the Concentration in humans in data set [3] (ref Krug et al. ([2013b])) was 0.005–0.5^e µM; in data set [3] (ref Krug et al. ([2013b]), listed as methylmercury), 0.005 to 0.5 µM. For the same molecule, the “class based on clinical evidence” value in data set [4] is reported as “Well-established (developmental)”.

As to `COC(=O)c1ccc2c(c1)NC(=O)/C2=C(\Nc1ccc(N(C)C(=O)CN2CCN(C)CC2)cc1)c1ccccc1` [Nintedanib], the “LOAEL Neurons Tα1” value in data set [1] (setting [5]) is 0.05 µM. In the data set on EF1α promoter (setting [5]), the “LOAEL Neurons EF1α” value came out at 5 µM. Also, the “LOAEL ESC EF1α” value in the data set on EF1α promoter (setting [6]) was 5 µM. Moreover, in data set [2] (setting [7]), the “LOAEL ESC Tα1” value was determined as 0.5 µM. Besides, the Concentration in humans in data set [3] (ref Zimmer et al. ([2014])) is given as 0.074^k µM. In addition, in data set [4], the “class based on clinical evidence” value is given as “Possibly (developmental)”.

Oxytocin: the “LOAEL Neurons Tα1” value in data set [1] (setting [5]) is over 0.1 µM. In addition, the “LOAEL Neurons EF1α” value with EF1α promoter (setting [5]) is given as over 0.1 µM. Further, in the data set with EF1α promoter (setting [6]), the “LOAEL ESC EF1α” value is given as over 0.1 µM. Moreover, the “LOAEL ESC Tα1” value in data set [2] (setting [7]) was over 0.1 µM. Besides, in data set [3] (ref Zimmer et al. ([2014])), the Concentration in humans was 0.002^k µM. Further, in data set [4], the “class based on clinical evidence” value was “Non-neurotoxic”.

As for `COc1ccc2[nH]c([S+]([O-])Cc3ncc(C)c(OC)c3C)nc2c1` (centres unmarked) [Omeprazole], the “LOAEL Neurons Tα1” value in data set [1] (setting [5]) was over 50 µM. In addition, the “LOAEL Neurons EF1α” value with EF1α promoter (setting [5]) is over 50 µM. Moreover, in the data set with EF1α promoter (setting [6]), the “LOAEL ESC EF1α” value is on record as over 50 µM. The “LOAEL ESC Tα1” value in data set [2] (setting [7]) is reported as over 50 µM. In addition, the Concentration in humans in data set [3] (ref Linden et al. ([2007])) is given as 0.8^b µM. Also, the “class based on clinical evidence” value in data set [4] is on record as “Non-neurotoxic”.

In the case of `O=C(NC[C@H]1CN(c2ccc(N3CCOCC3=O)cc2)C(=O)O1)c1ccc(Cl)s1` [Rivaroxaban], the “LOAEL Neurons Tα1” value in data set [1] (setting [5]) is recorded as over 10 µM. Further, the “LOAEL Neurons EF1α” value with EF1α promoter (setting [5]) is over 10 µM. In addition, the “LOAEL ESC EF1α” value with EF1α promoter (setting [6]) is over 10 µM. In addition, in data set [2] (setting [7]), the “LOAEL ESC Tα1” value is over 10 µM. Also, the Concentration in humans in data set [3] (ref Zimmer et al. ([2014])) was 0.69^k µM. Further, the “class based on clinical evidence” value in data set [4] was “Non-neurotoxic”.

B1: G-CSF: Hormone stimulating granulopoiesis; Peptide/Protein (protein, UniProt P09919 31-207, looked up)
Granulocyte …: TPLGPASSLPQSFLLKCLEQVRKIQGDGAALQEKLVSECATYKLCHPEELVLLGHSLGIPWAPLSSCPSQALQLAGCLSQLHSGLFLYQGLLQALEGISPELGPTLDTLQLDVADFATTIWQQMEELGMAPALQPTQGAMPAFASAFQRRAGGVLVASHLQSFLEVSYRVLRHLAQP
For the molecule B1, in data set [1] (setting [5]), the “LOAEL Neurons Tα1” value was over 0.00266 µM. For the same molecule, in the data set on EF1α promoter, the “effect on general promoter activity in neurons” value was “selectively increased”. Further, in the data set with EF1α promoter (setting [5]), the “LOAEL Neurons EF1α” value was over 0.00266 µM. Further, the “LOAEL ESC EF1α” value in the data set with EF1α promoter (setting [6]) is over 0.00266 µM. Also, the “LOAEL ESC Tα1” value in data set [2] (setting [7]) was over 0.00266 µM. Further, the Concentration in humans in data set [3] (ref Zimmer et al. ([2014])) is listed as 1.3*10^−6k µM. Besides, the “class based on clinical evidence” value in data set [4] was “Non-neurotoxic”.
